The text below walks through data of patent US6447988B2, “In vitro assay method for the study of brain aging” (The Regents of the University of California, priority 1997, dated 2002).

Assay [1] deals with hippocampal slices. The note with it: cited from earlier work.
Assay [2] concerns hippocampal slices. The assay can be described thus: Western blot analyses of cultured hippocampal slices exposed to ZPAD. It counts as cell-based, Sprague-Dawley rats. The note with it: for replication of ZPAD-induced alterations by more selective inhibitors of cathepsin L: cultured brain slices. The protocol:
(§1) Hippocampal slices were prepared from 10-13 day-old Sprague-Dawley rats and maintained in culture using the method of Stoppini et al. (1991, supra). Briefly, the hippocampi were dissected in ice-cold artificial cerebrospinal fluid (124 mM NaCl, 10 mM glucose, 3 mM KCl, 1.25 mM KH2PO4, 4 mM MgSO4, 2 mM CaCl2, 26 mM NaHCO3, 2 mM ascorbate, 0.1 mM ascorbate, pH=7.3), and 400 μm thick slices were produced on a McIlwain tissue chopper. One ml of culture media (50% Basal Medium Eagle, 25% Earle's Balance Salt Solution, 25% horse serum), supplemented with 136 mM NaCl, 2 mM CaCl2, 2.5 mM MgSO4, 5 mM NaHCO3 3 mM glutamine, 40 mM glucose, 0.5 mM ascorbic acid, 20 mM HEPES (pH=7.3), 1 mg/L insulin, 5 U/ml penicillin and 5 mg/L streptomycin, was added to each well of a six well culture plate, and inserts containing a polystyrene membrane (pore size: […]) were placed in each well to support the hippocampal sections. Slices were incubated in a humidified, 37° C. atmosphere containing 5% CO2 and maintained in culture for at least nine days before experiments were initiated. Media was replenished on the first day after explantation, and every 2-3 days during the initial culture period. A subset of the hippocampal slices in the six-well culture dishes was exposed to media (as described above, with heat-treated horse serum) containing 30-50 μM ZPAD (BACHEM Bioscience, Inc., Torrance, Calif.). Tissue was harvested after three to six days of continuous ZPAD exposure.
On the technique in general: A western blot detects proteins with antibodies after separation by electrophoresis.

The subject of another assay is cathepsin D mRNA. The assay can be described thus: In situ hybridization for cathepsin D mRNA in cultured hippocampal slices. Conditions: four days of exposure to 45 μM ZPAD. It counts as cell-based, Sprague-Dawley rats. The protocol:
as §1, with “Tissue was harvested after three to six days of continuous ZPAD exposure.” left out

The subject of assay [3] is hippocampal slices. Put plainly: Electron microscopy of cultured hippocampal slices treated with ZPAD. It counts as cell-based, Sprague-Dawley rats. The protocol:
as §1
Furthermore, lysosomes in CA1 and CA3 pyramidal cells were not restricted to the soma but instead were located throughout dendritic processes. Clusters of lysosomes were commonly found within bulging segments of proximal dendrites that were notable for an absence of nicrotubules and neurofilaments. […] These appendages are similar in form and content to structures previously referred to as “meganeurites.” While pyknotic nuclei were sometimes encountered, most of the cells in slices exposed to ZPAD for six days appeared relatively normal. […]

Where [4] appears, read: chloroquine treatment of long-term hippocampal slices.
The mark [5] stands for this setting: 45 μM ZPAD for six days, electron microscope.

Consider `CCN(CC)CCCC(C)Nc1ccnc2cc(Cl)ccc12` (centres unmarked) [chloroquine], for which, in the assay with hippocampal slices [1] (setting [4]), the “carboxy-terminal fragments of the amyloid precursor protein (APP)” value is recorded as “appearance” and the synaptophysin result is “loss”.
Regarding `CC(C)C[C@H](NC(=O)[C@@H](NC(=O)N[C@@H](Cc1ccccc1)C(=O)O)[C@@H]1CCN=C(N)N1)C(=O)N[C@H](C=O)Cc1ccccc1` [chymostatin], the “replication of ZPAD-induced alterations by more selective inhibitors of cathepsin L” value with hippocampal slices [2] is recorded as “replicated several of the ZPAD-induced alterations”.
For `C=C(C)[C@H]1CN[C@H](C(=O)O)[C@H]1CC(=O)O` [kainic acid], the “rate of build-up of β-amyloid-containing fragments and loss of synaptophysin” value with hippocampal slices [1] (pre-treatment with kainic acid before chloroquine) was “more rapid”.
Consider “N-CBZ-L-phenylalanyl-L-alanine-diazomethylketone [ZPAD]”, for which, in the assay with cathepsin D mRNA (CA3 neurons), the “increase in the level of cathepsin D mRNA, CA3 neurons” value was 56%. The “increase in the level of cathepsin D mRNA, glial cells of subfield CA1 stratum radiatum” value in the assay with cathepsin D mRNA (p<0.01) amounted to 71%. Also, in the assay with hippocampal slices [3] (setting [5]), the “meganeurite formation on CA1 neurons” value was “a small percentage of CA1 neurons”; the “number of lysosomes in the perikarya of neurons and glia” value is given as “dramatic increase”. In the assay with hippocampal slices [3] (ZPAD for six days, then seven additional days in culture without ZPAD), the “meganeurite-containing CA1 pyramidal cells after washout” value is reported as “more commonly found”. For the same compound, the “levels of 25-30 kDa fragments of amyloid precursor protein” value in the assay with hippocampal slices [2] (45 μM ZPAD for six days, Western blot) is on record as “increased levels”. For the same compound, in the assay with hippocampal slices [2] (Western blots of subcellular fractions of ZPAD-exposed slices), the “levels of active cathepsin D protein in lysosomal and non-lysosomal (cytosolic) compartments” value is “markedly elevated levels”. Moreover, in the assay on hippocampal slices [2] (slices exposed to 30-50 μM ZPAD for three to six days, Western blot, p<0.001, n=8), the “increase in the protein level of cathepsin D” value was found to be 3 fold. Also, the “degradation of cytoskeletal proteins” value in the assay on hippocampal slices [2] (slices exposed to 30-50 μM ZPAD for three to six days, Western blot, tubulin, spectrin, microtubule-associated protein-2, tau) is “proteolytic degradation of four cytoskeletal proteins”.
For “N-CBZ-L-phenylalanyl-L-phenylalanine-diazomethylketone”, the “replication of ZPAD-induced alterations by more selective inhibitors of cathepsin L” value in the assay with hippocampal slices [2] was “replicated several of the ZPAD-induced alterations”.
